Source: patent US8952024B2, “Herbicidal pyrimidone derivatives” (E I du Pont de Nemours and Company, priority 2009, dated 2015)

Experiments:
Experiment in all cases: Test D pre-/postemergence plant response
Assay type in all cases: in vivo
[1] = tested on: naked crabgrass (Digitaria nuda)
How it was run: (§1)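 Seeds in loam–sand blend treated preemergence, and plants at 1- to 4-leaf stage (2–18 cm) treated postemergence, with compounds in non-phytotoxic solvent with surfactant. Greenhouse for 14–21 days, then visual rating against controls, 0 (no effect) to 100 (complete control).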

[2] = tested on: morningglory (pitted morningglory, Ipomoea lacunosa)
How it was run: as §1

[3] = tested on: signalgrass (broadleaf signalgrass, Brachiaria platyphylla)
How it was run: as §1

[4] = tested on: quackgrass (Elytrigia repens)
How it was run: as §1

[5] = tested on: kochia (Kochia scoparia)
How it was run: as §1

[6] = tested on: mallow (common mallow, Malva sylvestris)
How it was run: as §1

[7] = tested on: Surinam grass (Brachiaria decumbens)
How it was run: as §1

[8] = tested on: dallisgrass (Paspalum dilatatum)
How it was run: as §1

[9] = tested on: bluegrass (annual bluegrass, Poa annua)
How it was run: as §1

[10] = tested on: ragweed (common ragweed, Ambrosia elatior)
How it was run: as §1

[11] = tested on: barnyardgrass (Echinochloa crus-galli)
How it was run: as §1

[12] = tested on: sandbur (southern sandbur, Cenchrus echinatus)
How it was run: as §1

[13] = tested on: guineagrass (Panicum maximum)
How it was run: as §1

[14] = tested on: green foxtail (Setaria viridis)
How it was run: as §1

[15] = tested on: large crabgrass (Digitaria sanguinalis)
How it was run: as §1

[16] = tested on: Russian thistle (Salsola kali)
How it was run: as §1

[17] = Postemergence, 16 g ai/ha, scale 0 to 100
[18] = Postemergence, 31 g ai/ha, scale 0 to 100
[19] = Postemergence, 125 g ai/ha, scale 0 to 100 (0 no effect, 100 complete control)
[20] = Postemergence, 62 g ai/ha, scale 0 to 100 (0 no effect, 100 complete control)
[21] = Preemergence, 16 g ai/ha, scale 0 to 100, 0 no effect, 100 complete control
[22] = Preemergence, 31 g ai/ha, scale 0 to 100 (0 no effect, 100 complete control)
[23] = Preemergence, 62 g ai/ha, scale 0 to 100
[24] = Preemergence, 125 g ai/ha, scale 0 to 100
[25] = Postemergence, 31 g ai/ha, scale 0 to 100 (0 no effect, 100 complete control)

For O=C1CCCC(O)=C1C(=O)c1cnc(-c2cccnc2)n(-c2ccccc2)c1=O [Compound 113, 5-[(2-hydroxy-6-oxo-1-cyclohexen-1-yl)carbonyl]-3-phenyl-2-(3-pyridinyl)-4(3H)-pyrimidone], the “Plant response rating, Crabgrass, Naked” value [1, 17] was 50, the “Plant response rating, Crabgrass, Naked” value [1, 18] was 65 and the “Plant response rating, Crabgrass, Naked” value [1, 19] was 75. The “Plant response rating, Crabgrass, Naked” value [1, 20] was 70, the “Plant response rating, Crabgrass, Naked” value [1, 21] was 0 and the “Plant response rating, Crabgrass, Naked” value [1, 22] was 0. For the same compound, the “Plant response rating, Crabgrass, Naked” value [1, 23] was 90, the “Plant response rating, Crabgrass, Naked” value [1, 24] was 100 and the “Plant response rating, Morningglory” value [2, 17] was 50. For the same compound, the “Plant response rating, Morningglory” value [2, 18] was 60, the “Plant response rating, Morningglory” value [2, 19] was 90 and the “Plant response rating, Morningglory” value [2, 20] was 90. For the same compound, the “Plant response rating, Morningglory” value [2, 21] was 60, the “Plant response rating, Morningglory” value [2, 22] was 60 and the “Plant response rating, Morningglory” value [2, 23] was 60. The “Plant response rating, Morningglory” value [2, 24] was 90, the “Plant response rating, Signalgrass” value [3, 17] was 5 and the “Plant response rating, Signalgrass” value [3, 18] was 40. The “Plant response rating, Signalgrass” value [3, 19] was 75, the “Plant response rating, Signalgrass” value [3, 20] was 60 and the “Plant response rating, Signalgrass” value [3, 21] was 0. The “Plant response rating, Signalgrass” value [3, 22] was 0, the “Plant response rating, Signalgrass” value [3, 24] was 90 and the “Plant response rating, Quackgrass” value [4, 17] was 0. The “Plant response rating, Quackgrass” value [4, 18] was 0, the “Plant response rating, Quackgrass” value [4, 19] was 30 and the “Plant response rating, Quackgrass” value [4, 20] was 20. The “Plant response rating, Quackgrass” value [4, 21] was 0, the “Plant response rating, Quackgrass” value [4, 22] was 0 and the “Plant response rating, Quackgrass” value [4, 24] was 0. The “Plant response rating, Kochia” value [5, 17] was 25, the “Plant response rating, Kochia” value [5, 18] was 40 and the “Plant response rating, Kochia” value [5, 19] was 50. The “Plant response rating, Kochia” value [5, 20] was 50, the “Plant response rating, Kochia” value [5, 22] was 70 and the “Plant response rating, Kochia” value [5, 23] was 100. For the same compound, the “Plant response rating, Kochia” value [5, 24] was 100, the “Plant response rating, Mallow” value [6, 17] was 0 and the “Plant response rating, Mallow” value [6, 18] was 0. The “Plant response rating, Mallow” value [6, 19] was 20, the “Plant response rating, Mallow” value [6, 20] was 0 and the “Plant response rating, Mallow” value [6, 21] was 0. For the same compound, the “Plant response rating, Mallow” value [6, 22] was 5, the “Plant response rating, Mallow” value [6, 23] was 5 and the “Plant response rating, Mallow” value [6, 24] was 90. For the same compound, the “Plant response rating, Surinam Grass” value [7, 17] was 60, the “Plant response rating, Surinam Grass” value [7, 18] was 75 and the “Plant response rating, Surinam Grass” value [7, 20] was 80. The “Plant response rating, Surinam Grass” value [7, 22] was 40, the “Plant response rating, Surinam Grass” value [7, 24] was 95 and the “Plant response rating, Dallisgrass” value [8, 17] was 10. The “Plant response rating, Dallisgrass” value [8, 18] was 10, the “Plant response rating, Dallisgrass” value [8, 19] was 70 and the “Plant response rating, Dallisgrass” value [8, 20] was 60. The “Plant response rating, Dallisgrass” value [8, 21] was 5, the “Plant response rating, Dallisgrass” value [8, 22] was 50 and the “Plant response rating, Dallisgrass” value [8, 23] was 50. For the same compound, the “Plant response rating, Dallisgrass” value [8, 24] was 100, the “Plant response rating, Bluegrass” value [9, 17] was 0 and the “Plant response rating, Bluegrass” value [9, 25] was 0. The “Plant response rating, Bluegrass” value [9, 19] was 0, the “Plant response rating, Bluegrass” value [9, 20] was 0 and the “Plant response rating, Bluegrass” value [9, 21] was 0. For the same compound, the “Plant response rating, Bluegrass” value [9, 22] was 0, the “Plant response rating, Bluegrass” value [9, 23] was 0 and the “Plant response rating, Bluegrass” value [9, 24] was 0. The “Plant response rating, Ragweed” value [10, 17] was 70, the “Plant response rating, Ragweed” value [10, 18] was 70 and the “Plant response rating, Ragweed” value [10, 19] was 80. For the same compound, the “Plant response rating, Ragweed” value [10, 20] was 75, the “Plant response rating, Ragweed” value [10, 21] was 0 and the “Plant response rating, Ragweed” value [10, 22] was 50. For the same compound, the “Plant response rating, Ragweed” value [10, 24] was 98, the “Plant response rating, Barnyardgrass” value [11, 17] was 65 and the “Plant response rating, Barnyardgrass” value [11, 25] was 75. The “Plant response rating, Barnyardgrass” value [11, 19] was 80, the “Plant response rating, Barnyardgrass” value [11, 20] was 80 and the “Plant response rating, Barnyardgrass” value [11, 21] was 0. For the same compound, the “Plant response rating, Barnyardgrass” value [11, 22] was 0, the “Plant response rating, Barnyardgrass” value [11, 23] was 0 and the “Plant response rating, Barnyardgrass” value [11, 24] was 35. The “Plant response rating, Sandbur” value [12, 17] was 5, the “Plant response rating, Sandbur” value [12, 18] was 10 and the “Plant response rating, Sandbur” value [12, 19] was 60. The “Plant response rating, Sandbur” value [12, 20] was 60, the “Plant response rating, Sandbur” value [12, 21] was 0 and the “Plant response rating, Sandbur” value [12, 22] was 0. For the same compound, the “Plant response rating, Sandbur” value [12, 24] was 90, the “Plant response rating, Guineagrass” value [13, 17] was 25 and the “Plant response rating, Guineagrass” value [13, 18] was 25. The “Plant response rating, Guineagrass” value [13, 19] was 70, the “Plant response rating, Guineagrass” value [13, 20] was 50 and the “Plant response rating, Guineagrass” value [13, 21] was 0. The “Plant response rating, Guineagrass” value [13, 22] was 65, the “Plant response rating, Guineagrass” value [13, 23] was 100 and the “Plant response rating, Guineagrass” value [13, 24] was 100. The “Plant response rating, Foxtail, Green” value [14, 17] was 25, the “Plant response rating, Foxtail, Green” value [14, 18] was 60 and the “Plant response rating, Foxtail, Green” value [14, 19] was 90. The “Plant response rating, Foxtail, Green” value [14, 20] was 70, the “Plant response rating, Foxtail, Green” value [14, 21] was 0 and the “Plant response rating, Foxtail, Green” value [14, 22] was 0. For the same compound, the “Plant response rating, Foxtail, Green” value [14, 23] was 0, the “Plant response rating, Foxtail, Green” value [14, 24] was 20 and the “Plant response rating, Crabgrass, Large” value [15, 17] was 60. The “Plant response rating, Crabgrass, Large” value [15, 18] was 60, the “Plant response rating, Crabgrass, Large” value [15, 19] was 70 and the “Plant response rating, Crabgrass, Large” value [15, 20] was 70. For the same compound, the “Plant response rating, Crabgrass, Large” value [15, 21] was 20, the “Plant response rating, Crabgrass, Large” value [15, 22] was 30 and the “Plant response rating, Crabgrass, Large” value [15, 23] was 95. For the same compound, the “Plant response rating, Crabgrass, Large” value [15, 24] was 95, the “Plant response rating, Russian Thistle” value [16, 17] was 0 and the “Plant response rating, Russian Thistle” value [16, 18] was 0. The “Plant response rating, Russian Thistle” value [16, 19] was 20, the “Plant response rating, Russian Thistle” value [16, 20] was 20 and the “Plant response rating, Russian Thistle” value [16, 21] was 0. For the same compound, the “Plant response rating, Russian Thistle” value [16, 22] was 65 and the “Plant response rating, Russian Thistle” value [16, 24] was 100.
